US20080221056A1, “Early Detection and Prognosis of Colon Cancers” (JOHNS HOPKINS UNIVERSITY, priority 2007, published 2008)

System: HCT116 cells
Assay: Whole transcriptome microarray of gene re-expression in drug-treated CRC cells (11 hypermethylated guide genes)
Type: cell-based, human
Procedure: Cell culture and treatment. HCT116 cells and isogenic genetic knockout derivatives were maintained as previously described (14). For drug treatments, log phase CRC cells were cultured in McCoys 5A media (Invitrogen) containing 10% BCS and 1× penicillin/streptomycin with 5 μM 5aza-deoxycytidine (DAC) (Sigma; stock solution: 1 mM in PBS) for 96 hours, replacing media and DAC every 24 hours. Cell treatment with 300 nM Trichostatin A (Sigma; stock solution: 1.5 mM dissolved in ethanol) was performed for 18 hours. Control cells underwent mock treatment in parallel with addition of equal volume of PBS or ethanol without drugs.
Microarray analysis. Total RNA was harvested from log phase cells using Triazol (Invitrogen) and the RNeasy kit (Qiagen) according to the manufacturers instructions, including a DNAase digestion step. RNA was quantified using the Nanoprop ND-100 followed by quality assessment with 2100 Bioanalyzer (Agilent Technologies). RNA concentrations for individual samples were greater than 200 ng/ul, with 28s/18s ratios greater than 2.2 and RNA integrity of 10 (10 scored as the highest). Sample amplification and labeling procedures were carried out using the Low RNA Input Fluorescent Linear Amplification Kit (Agilent Technologies) according to the manufacturers instructions. The labeled cRNA was purified using the RNeasy mini kit (Qiagen) and quantified. RNA spike-in controls (Agilent Technologies) were added to RNA samples before amplification. 0.75 microgram of samples labeled with Cy3 or Cy5 were mixed with control targets (Agilent Technologies), assembled on Oligo Microarray, hybridized, and processed according to the Agilent microarray protocol. Scanning was performed with the Agilent G2565BA microarray scanner using settings recommended by Agilent Technologies.
Data analysis. All arrays were subject to quality checks recommended by the manufacturer. […] The log ratio of red signal to green signal was calculated after background-subtraction and LoEss normalization as implemented in the limma package from Bioconductor (25,26). […]

| SMILES | response of guide gene expression to TSA (300 nM Trichostatin A for 18 hours, zone = expression increase <1.4 fold) | guide genes increased 1.3 fold or more (total) (5 μM DAC for 96 hours, 11 known hypermethylated, silenced guide genes) [%] | guide genes increased 2-fold or more (5 μM DAC for 96 hours, 11 known hypermethylated, silenced guide genes (5 of 11)) [%] |
| --- | --- | --- | --- |
| CC(/C=C/C(=O)NO)=C\[C@@H](C)C(=O)c1ccc(N(C)C)cc1 [TSA, trichostatin A] | All tested genes remained within the TSA non-responsive zone |  |  |
| Nc1ncn([C@H]2C[C@H](O)[C@@H](CO)O2)c(=O)n1 [DAC, 5-aza-2′-deoxycytidine] |  | 73 | 45 |
